“And” between values parts separate entries of the source, which are not always exact repeats. Equal entries are not always repeated.
Experiments:
Assay type in all cases: functional
[1] = Compound was tested for its activity against T. cruzi-infected L6E9 myoblasts at no concentration at 48 hr.
[2] = Compound was tested for its activity against T. cruzi-infected L6E9 myoblasts at no concentration at 24 h.
[3] = Compound was tested for its activity against T. cruzi-infected L6E9 myoblasts expressed as parasites number per 100 myoblasts at no concentration at 24 h.
[4] = Compound was tested for its activity against T. cruzi-infected L6E9 myoblasts expressed as parasites number per 100 myoblasts at no concentration at 72h.
[5] = Compound was tested for its activity against T. cruzi-infected L6E9 myoblasts expressed as parasites number per 100 myoblasts at no concentration at 48 hr.
[6] = Compound was tested for its activity against T. cruzi-infected L6E9 myoblasts at a concentration of 40 ug/mL.
[7] = Compound was tested for its activity against T. cruzi-infected L6E9 myoblasts at a concentration of 30 ug/mL.
[8] = Compound was tested for its activity against T. cruzi-infected L6E9 myoblasts expressed as parasites number per 100 myoblasts at a concentration of 30 ug/mL.
[9] = Compound was tested for its activity against T. cruzi-infected L6E9 myoblasts at no concentration at 72h.
[10] = Compound was tested for its activity against T. cruzi-infected L6E9 myoblasts expressed as parasites number per 100 myoblasts at a concentration of 5 ug/mL.
[11] = Compound was tested for its activity against T. cruzi-infected L6E9 myoblasts at a concentration of 5 ug/mL.
[12] = Compound was tested for its activity against T. cruzi-infected L6E9 myoblasts at a concentration of 10 ug/mL.

Row | Structure (SMILES) | Myoblast with parasites [1] | Myoblast with parasites [2] | Parasites no. per 100 Myoblasts [3] | Parasites no. per 100 Myoblasts [4] | Parasites no. per 100 Myoblasts [5] | Myoblast with parasites [6] | Myoblast with parasites [7] | Parasites no. per 100 Myoblasts [8] | Myoblast with parasites [9] | Parasites no. per 100 Myoblasts [10] | Myoblast with parasites [11] | Myoblast with parasites [12]
1 | CCSC(=O)OC/C=C(\C)CC/C=C(\C)CCC1OC1(C)C (stereo unspecified) | 16.25% | 21.25% | 46.5 | 694.5 | 118 | 10.25% and 2.75% | 23.25% and 9.75% | 77.75 and 27 | 20.5% | – | – | –
2 | c1ccc(Oc2ccc(OCCOC3CCCCO3)cc2)cc1 (stereo unspecified) | 24.5% | 21.25% | – | – | 107 | – | – | – | 18.25% | 90.25 and 113.75 | 22.5% and 22% | 21.25% and 12.5%

Reference: ChEMBL document CHEMBL1151565, “Biological evaluation of two potent inhibitors of Trypanosoma cruzi epimastigotes against the intracellular form of the parasite” (1996)
